Reference: publication PMC5510229, “BCAT1 controls metabolic reprogramming in activated human macrophages and is associated with inflammatory diseases” (Nature Communications, 2017)

What was measured:
[1] = test system: human monocyte-derived macrophages (hMDMs); test: Seahorse extracellular flux analysis (OCR, ECAR) in hMDMs; assay type: cell-based; details: LPS 100 ng ml^−1 + ERG240 20 mM, 3 h
Method: Figure 2 BCAT1 inhibition reduces oxygen consumption and glycolysis in human macrophages. (a) Real-time extracellular OCR measurements in hMDMs (left panel) that were previously treated with either LPS (100 ng ml^−1) or LPS+ERG240 (20 mM) for 3 h. OCR values were recorded following sequential treatments with glucose (5 mM), oligomycin A (0.5 μM), carbonyl cyanide 4-(trifluoromethoxy) phenyl- hydrazine (FCCP, 1 μM) and a combination of 2-deoxy-D-glucose (2-DG, 50 mM), antimycin A (1 μM) and rotenone (1 μM). Basal respiration, estimated ATP production, and maximal respiration are shown in the right panel. n=3 healthy donor hMDMs were used in 12 technical replicates. The results are representative of three independent experiments. (b) Real-time ECAR (left panel), glycolysis and glycolytic capacity (right panel). n=3 healthy donor hMDMs were used in 12 technical replicates. The results are representative of three independent experiments. (c) hMDMs were subjected to BCAT1 siRNA (si-BCAT1) or non-targeting siRNA (Si-Control) treatment, followed by LPS stimulation (3 h, 100 ng ml^−1) before measuring BCAT1 expression levels (left panel), OCR (middle panel) and ECAR (right panel). (d) Basal respiration, estimated ATP production, maximal respiration, glycolysis and glycolytic capacity in si-Control and si-BCAT1 transfected, LPS-treated hMDMs. n=4 hMDMs were used in at least five technical replicates. Error bars are s.e.m. Significance was tested using two-tailed Student’s t-test.
Real-time measurements of OCR and ECAR were performed using a Seahorse XF96 Extracellular Flux Analyzer (Seahorse Bioscience). hMDMs cultured for 5 days in presence of RPMI containing M-CSF (100 ng ml^−1) and FCS (10%) were washed and incubated with either ERG240 or LPS or a combination of both for 3 h. Cells were then washed, re-suspended using the non-enzymatic cell dissociation buffer (Sigma) and 5 × 10^5 hMDMs were seeded as a monolayer in a 96-well microplate containing XF Assay Modified DMEM. Glucose and different metabolic drugs were injected during real-time measurements of OCR and ECAR. Basal respiration was calculated as the last measurement before addition of oligomycin – non mitochondrial respiration (minimum rate measurement after Rot/AntA). Estimated ATP production designates the last measurement before addition of oligomycin – minimum rate after oligomycin. Maximal respiration is shown as the maximum rate measurement after addition of FCCP – non mitochondrial respiration (minimum rate measurement after Rot/AntA). Glycolysis refers to ECAR values before the addition of oligomycin – ECAR values before the addition of glucose. […] In RNAi experiments, hMDMs transfected with either BCAT1 siRNA or control (non-targeting) siRNA were seeded in a 96-well microplate, LPS-stimulated (100 ng ml^−1, 3 h) and real-time measurements of OCR and ECAR were recorded, as described above.

[2] = test system: human monocyte-derived macrophages (hMDMs); test: hMDM cell viability (alamarBlue); assay type: cell-based; details: ERG240 20 mM
Method: Migration of BMDMs an d viability of hMDMs
The migration of BMDMs was assessed using a modified Bo yden chamber methodology.
Specificall y, mouse BMDMs were tr ypsinized and suspended in serum free incomplete medi a containing various concentrations of the drug at a cell density of 2.5x10^4 cells/mL. Volumes of 400 µL of cell suspens ions were added onto the upper chamber of 6.5 m m transwell inserts (Costar, Cat. No. 3422), placed in a 24-well plate (Costar). A volume of 1.5 mL of complete media containing 10% FBS as chemo- attractant were added into the lower chambers of the plate. The assa y also included wells with lower chambers containing serum free incomplete media as negative control. […]
To determine the effect of ERG240 on the total number of BMDMs, cell s were plated onto a 96-well plate at a density of 5,000 cells per well in complete media and allowed to adhere overnight. The cells were then exposed to various drug concentrations overnight and the cell population was quantified with CyQuant Cell Proliferation kit (Life Technologies) using triplicates, in two independent experiments. For hMDMs, cell viability was determined using the alamarBlue® Assa y (Invitrogen). […]
backed up by quantitative proteomics by LC -MS/MS (with maximum of the 12 most abundant multiply -charged ions registered in each survey spectrum selected in a data - […]

[3] = Water solubility; assay type: physicochemical

With CC(=O)C(C)CCC(=O)O (stereo not shown) [ERG240] the basal respiration [1] was “significantly reduced”, the “estimated ATP production” value [1] was “significantly reduced” and the “extracellular acidification rate (ECAR)” value [1] was “decreased”. For the same compound, the glycolysis [1] was “significantly reduced”, the glycolytic capacity [1] was “significantly reduced” and the maximal respiration [1] was “significantly reduced”. The “oxygen consumption rate (OCR)” value [1] was “decreased”, the “cell viability at 3 and 8 h” value ([2]; control and LPS-treated hMDMs) was “did not affect cell viability” and the “cell viability at 24 h” value ([2]; only in LPS-stimulated cells) was “modest but significant reduction in cell viability”. For the same compound, the water solubility [3] was “water-soluble”.
